Data: ChEMBL document CHEMBL1128096, “Gamma-lactams and related compounds as cholesterol absorption inhibitors: homologs of the beta-lactam cholesterol absorption inhibitor SCH 484611” (1995)
The source made the active and inactive calls. The rule behind the calls is not given here.

tested on: Cricetinae gen. sp.; assay: Tested for ability to reduce liver cholesterol ester (L/CE) levels in the cholesterol fed hamster model at a dose of 10 mg/kg; type: functional, Cricetulus griseus; conditions: not given

Structure (SMILES)	L/CE [%]
COc1ccc([C@@H]2[C@@H](CCCc3ccccc3)C(=O)N2c2ccc(OC)cc2)cc1 [SCH-48461]	93
COc1ccc([C@@H]2[C@H](CCCc3ccccc3)C(=O)N2c2ccc(OC)cc2)cc1	69

tested on: Cricetinae gen. sp.; assay: Ability to reduce liver cholesterol ester (L/CE) levels in the cholesterol fed hamster model at a dose of 50 mg/k; type: functional, Cricetulus griseus; conditions: not given

Structure (SMILES)	L/CE [%]
COc1ccc([C@@H]2[C@@H](CCCc3ccccc3)C(=S)N2c2ccc(OC)cc2)cc1	23
COc1ccc([C@@H]2[C@H](CCCCc3ccccc3)CC(=O)N2c2ccc(OC)cc2)cc1	30
COc1ccc([C@@H]2[C@H](CCCc3ccccc3)S(=O)(=O)N2c2ccccc2)cc1	43
COc1ccc([C@@H]2[C@@H](CCCc3ccccc3)C(=O)N2c2ccc(OC)cc2)cc1 [SCH-48461]	78
COc1ccc([C@@H]2[C@@H](CCCc3ccccc3)OC(=O)N2c2ccccc2)cc1	47
COc1ccc([C@@H]2[C@H](CCc3ccccc3)OC(=O)N2c2ccccc2)cc1	21
COc1ccc([C@@H]2[C@H](c3ccc4ccccc4c3)CC(=O)N2c2ccc(OC)cc2)cc1	21
COc1ccc([C@@H]2[C@H](CCCc3ccccc3)CC(=O)N2c2ccc(OC)cc2)cc1	43
COc1ccc([C@@H]2[C@@H](c3ccc4ccccc4c3)CC(=O)N2c2ccc(OC)cc2)cc1	28
COc1ccc([C@@H]2[C@@H](CCCc3ccccc3)S(=O)(=O)N2c2ccccc2)cc1	51
COc1ccc([C@@H]2[C@H](CCCc3ccccc3)C(=O)N2c2ccc(OC)cc2)cc1 (racemic)	95
COc1ccc([C@@H]2[C@@H](CCCCc3ccccc3)CC(=O)N2c2ccc(OC)cc2)cc1	52
COc1ccc([C@@H]2[C@@H](CCc3ccccc3)NC(=O)N2c2ccccc2)cc1	34
COc1ccc([C@@H]2[C@@H](CCc3ccccc3)CC(=O)N2c2ccc(OC)cc2)cc1	24
COc1ccc([C@@H]2[C@@H](CCc3ccccc3)OC(=O)N2c2ccccc2)cc1	34
COc1ccc([C@@H]2[C@H](CCc3ccccc3)CC(=O)N2c2ccc(OC)cc2)cc1	16
COc1ccc([C@@H]2[C@@H](CCCc3ccccc3)CC(=O)N2c2ccc(OC)cc2)cc1	12

tested on: Cricetinae gen. sp.; assay: Tested for ability to reduce liver cholesterol ester (L/CE) levels in the cholesterol fed hamster model at a dose of 50 mg/kg; NE: No effect; type: functional, organism-based; parameters: dose 50 mg/kg; conditions: Cricetulus griseus

Structure (SMILES)	L/CE
COc1ccc([C@H]2CN(c3ccc(OC)cc3)C(=O)[C@@H]2CCCc2ccccc2)cc1	inactive
COc1ccc([C@H]2C[C@@H](CCCCc3ccccc3)C(=O)N2c2ccccc2)cc1	inactive
COc1ccc([C@@H]2C[C@@H](CCCCc3ccccc3)C(=O)N2c2ccccc2)cc1	inactive
COc1ccc([C@@H]2C[C@@H](CCCc3ccccc3)C(=O)N2c2ccc(OC)cc2)cc1	inactive
